Measurements from US10006080B2, “High-selectivity contact activation inhibitor based on infestin-4” (OBSCHESTVO S OGRANICHENNOY OTVETSTVENNOSTYU …, priority 2013, dated 2018).

B1: corn trypsin inhibitor (other, UniProt P01088 29-138, looked up)
chain: SAGTSCVPGWAIPHNPLPSCRWYVTSRTCGIGPRLPWPELKRRCCRELADIPAYCRCTALSILMDGAIPPGPDAQLEGRLEDLPGCPREVQRGFAATLVTEAECNLATIS
notes: Isolated from corn; also called CTI

How the values were obtained:
hypercoagulant PFP = experiment: Thrombodynamics analyzer T-2, clots far from the activator in hypercoagulant PFP (100 pM fXIa added); format: biochemical, human; conditions: MutB 20 μM, CTI 15 μM; for time of appearance of clots far from the activator after activation: hypercoagulant PFP, nearly 5-8 minutes without inhibitor
Procedure: To assess the influence of the said contact activation inhibitors on appearance, far from the activator, of clots provoked by hypercoagulation, but not by contact activation of the sample by the cuvette walls, we added MutB (20 μM) and CTI (15 μM) into 2 separate samples of hypercoagulant PFP. Hypercoagulant PFP was obtained from normal frozen-thawed PFP by adding 100 pM of fXIa.
The influence of a polypeptide consisting of the sequence of an infestin-4 mutant MutB on the growth of fibrin clots in the samples of hypocoagulant, normal, and hypercoagulant blood plasma was studied using the laboratory diagnostic system «Thrombodynamics analyzer T-2» and the «Diagnostic kit for thrombodynamics investigation in blood plasma» (HemaCore, Moscow, Russia) according to the manual to the «Diagnostic kit for thrombodynamics investigation in blood plasma» (HemaCore, Moscow, Russia). Here, the said polypeptide was preliminarily proteolytically cleaved and chromatographically purified from thioredoxin (Trx). 15 minutes before the assay, the measuring cuvette, insert-activator with immobilized TF, and the reagents were held at 37° C. Standard investigation temperature was of 37° C. 15 minutes before the assay, 120 microliters of plasma were mixed with the investigated substances, MutB or CTI, for comparison, and put into a microtube. After mixing of the plasma with the substances, the tube with the plasma was put into a thermostat at 37° C. for 15 minutes. Immediately before the assay, the plasma was re-calcified: 120 microliters of the mixture of plasma and substances were put into a microtube with Reagent II (lyophilized solution of calcium acetate with an additive), and mixed up to complete Reagent II dilution. Then, 120 microliters of the mixture with Reagent II from the microtube was immediately transferred into the measuring cuvette. After that, the insert-activator was carefully inserted into the cuvette so that the surface with immobilized tissue factor would contact the plasma. Immediately after the contact of the coagulation activator with the blood plasma, the photography of the process of fibrin clot growth in plasma within the cuvette started. The cuvette-activator was a plate with the coagulation activator—tissue factor—immobilized at the low end surface (Fadeeva et al. 2010, Biochemistry (Moscow) 75:827-838). The automatic calculation of the assay results was performed using the software (user manual «Software for the laboratory diagnostic system «Thrombodynamics analyzer T-2», HemaCore, Moscow, Russia).

contact activation = experiment: Thrombodynamics analyzer T-2, artifact clots far from the TF activator in normal frozen-thawed PFP; format: biochemical, human; conditions: MutB 20 μM, CTI 15 μM; for cuvette area occupied by artifact clots far from the activator: 30 minutes after activation, whole cuvette area without inhibitor; for suppression of contact activation, formation of artifact clots: 30 minutes after assay start, n=4
Procedure: The assay included the following steps: thawing of a frozen PFP sample, adding to it of a contact activation inhibitor and incubating the resulting mixture, sample recalcification and its placing into the measuring cuvette channel, bringing the sample into contact with the TF immobilized at the end of a special insert-activator, and detecting the appearance and growth of fibrin clots in the consequent photography mode. The frozen PFP sample was obtained preliminarily through collection of blood into sodium citrate-containing tubes from several (at least five) healthy donors and subsequent 2 stages of centrifugation and freezing of the prepared plasma at −80° C. During the assay arrangement, the fibrin clot was growing from the insert-activator; appearance of additional clots in the cuvette area far from the activator was also possible, as shown on FIG. 2. Clots in the cuvette area far from the activator can be due to the hypercoagulation state of the sample or to the artifacts of sample contact activation from the cuvette walls (artifact clots): the latter must be suppressed for the said test to allow distinguishing between the normal and hypercoagulation states of the coagulation system. To do that, before activating the sample through bringing it into contact with TF, an efficient quantity of the contact activation inhibitor was added into the sample: in this case, we used the polypeptide comprising the sequence of an infestin-4 mutant MutB. To compare the efficiency of the claimed polypeptide comprising the sequence of an infestin-4 mutant MutB with the contact activation inhibitor CTI known in the field, the said inhibitors were added into 2 separate samples of normal frozen PFP plasma. We used such concentrations of the inhibitors at which the APTT increases nearly four-fold: 20 μM in case of MutB and 15 μM in case of CTI. […] For each sample, 4 repeated measurements were performed. 30 minutes after the assay start, images of the fibrin clot in measuring cuvettes-4 cuvettes for each sample-were obtained: they are shown on FIG. 3.
The cuvette area occupied by artifact clots (in % from the total cuvette area; n=4) was plotted for 3 samples of normal frozen plasma at separate time points (FIG. 4, averaged values at each time point). Without adding the contact activation inhibitor, artifact clots appear in the cuvette area far from the activator nearly 15 minutes after activation and occupy the whole cuvette area after 30 minutes. However, after addition of CTI or MutB, such clots occupy not more than 15% of the cuvette area 30 minutes after activation. […]

Molecule | influence on appearance of clots far from the activator in hypercoagulant plasma (hypercoagulant PFP) | time of appearance of clots far from the activator after activation (hypercoagulant PFP) [min] | cuvette area occupied by artifact clots far from the activator (contact activation) | suppression of contact activation, formation of artifact clots (contact activation)
MutB: polypeptide comprising the sequence of infestin-4 mutant MutB (SEQ ID NO: 1), inhibition loop TRNFVA; high-selectivity fXIIa inhibitor (EVRNPCACTRNFVAVCGSDGKTYGNPCMLNCAAQTKVPGLKLVHEGRCQRSNVEQF; Infestin-4 mutant MutB) | does not influence appearance of clots far from the activator | 5 to 8 | not more than 15% | almost complete suppression
B1 | delays appearance of clots far from the activator | 10 to 15 | not more than 15% | almost complete suppression
